This note sets out measurements from PubChem BioAssay AID256 (DTP/NCI, 2004).

This test concerns CD2F1 mice, L1210 leukemia ip, survival T/C. Put plainly: NCI In Vivo Anticancer Drug Screen. Data for tumor model L1210 Leukemia (intraperitoneal) in CD2F1 (CDF1) mice. To be noted: higher = longer survival. The gist of the method: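 Each value reflects a quotient of treated over vehicle control outcomes in mice with a transplanted tumor.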
The mark [1] stands for this setting: endpoint: mean survival time, dose: 100.0 mg/kg/injection, schedule: Q01DX009 (ip), vehicle: saline with Tween-80.
Where [2] appears, read: endpoint: mean survival time, dose: 200.0 mg/kg/injection, schedule: Q01DX009 (ip), vehicle: saline with Tween-80.
Setting [3] is: endpoint: mean survival time, dose: 400.0 mg/kg/injection, schedule: Q01DX009 (ip), vehicle: saline with Tween-80.
Where [4] appears, read: endpoint: mean survival time, dose: 25.0 mg/kg/injection, schedule: Q04DX003 (ip), vehicle: saline.
Where [5] appears, read: endpoint: mean survival time, dose: 50.0 mg/kg/injection, schedule: Q04DX003 (ip), vehicle: saline.
[6] abbreviates: endpoint: mean survival time, dose: 100.0 mg/kg/injection, schedule: Q04DX003 (ip), vehicle: saline.
Where [7] appears, read: endpoint: mean survival time, dose: 50.0 mg/kg/injection, schedule: Q01DX009 (ip), vehicle: Klucel (hydroxypropylcellulose) (HPC).
Where [8] appears, read: endpoint: mean survival time, dose: 100.0 mg/kg/injection, schedule: Q01DX009 (ip), vehicle: Klucel (hydroxypropylcellulose) (HPC).
Setting [9] is: endpoint: mean survival time, dose: 200.0 mg/kg/injection, schedule: Q01DX009 (ip), vehicle: Klucel (hydroxypropylcellulose) (HPC).
[10] abbreviates: endpoint: mean survival time, dose: 100.0 mg/kg/injection, schedule: Q04DX002 (ip), vehicle: saline with Tween-80.
Where [11] appears, read: endpoint: mean survival time, dose: 200.0 mg/kg/injection, schedule: Q04DX002 (ip), vehicle: saline with Tween-80.
Setting [12] is: endpoint: mean survival time, dose: 100.0 mg/kg/injection, schedule: Q04DX003 (ip), vehicle: saline with Tween-80.
Where [13] appears, read: endpoint: mean survival time, dose: 200.0 mg/kg/injection, schedule: Q04DX003 (ip), vehicle: saline with Tween-80.
Setting [14] is: endpoint: mean survival time, dose: 400.0 mg/kg/injection, schedule: Q04DX003 (ip), vehicle: saline with Tween-80.

“And” between values parts separate entries of the source, which are not always exact repeats. Equal values may be shown once. Inconclusive results and toxic doses are left out.

Consider `NC1=NC2OC(CO)C(O)C2O1` (configuration not stated), for which the T/C was 105 % of control under setting [1]; 100 % of control under setting [2]; 102 % of control under setting [3]; 100 % of control (endpoint: median survival time, dose: 100.0 mg/kg/injection, schedule: Q04DX003 (ip), vehicle: saline with Tween-80); 100 % of control (endpoint: median survival time, dose: 200.0 mg/kg/injection, schedule: Q04DX003 (ip), vehicle: saline with Tween-80); 100 % of control (endpoint: median survival time, dose: 400.0 mg/kg/injection, schedule: Q04DX003 (ip), vehicle: saline with Tween-80).
Consider `CC(=O)OCC(OC(C)=O)C(OC(C)=O)C(OC(C)=O)C(OC(C)=O)OC(C)=O` (configuration not stated), for which the T/C runs as follows: (endpoint: mean survival time, dose: 100.0 mg/kg/injection, schedule: Q01DX001 (ip), vehicle: saline with Tween-80) 94 % of control; (endpoint: mean survival time, dose: 200.0 mg/kg/injection, schedule: Q01DX001 (ip), vehicle: saline with Tween-80) 96 % of control; (endpoint: mean survival time, dose: 400.0 mg/kg/injection, schedule: Q01DX001 (ip), vehicle: saline with Tween-80) 96 % of control.
Regarding `CCCCCCCCCCP(=O)(OCCCC)OCCCC`, the T/C was 102 % of control under setting [4], 102 % of control under setting [5] and 100 % of control under setting [6].
On to `C1CC2C3CCC(C3)C2C1` (configuration not stated), for which the T/C was 103 % of control under setting [1], 102 % of control under setting [2] and 96 % of control under setting [3].
In the case of `CC(=O)OC1CCC2(C)C(=CC=C3C2=CCC2(C)C3CCC2C(C)/C=C\C(C)C(C)C)C1` (configuration not stated), the T/C by setting is: under setting [7], 96 % of control; under setting [8], 93 % of control; under setting [9], 101 % of control.
On to `COc1cc(OC)c(NC(=O)Oc2ccc3ccccc3c2)cc1Cl`, for which the T/C (endpoint: mean survival time, dose: 50.0 mg/kg/injection, schedule: Q01DX009 (ip), vehicle: saline with Tween-80) was 94 % of control; the T/C under setting [1] is 94 % of control; the T/C under setting [2] was 97 % of control.
Turning to `O=c1c2cccc3cccc(c4n1NC=c1ccccc1=4)c32`, the T/C by setting is: (endpoint: mean survival time, dose: 25.0 mg/kg/injection, schedule: Q04DX002 (ip), vehicle: saline with Tween-80) 100 % of control; (endpoint: mean survival time, dose: 50.0 mg/kg/injection, schedule: Q04DX002 (ip), vehicle: saline with Tween-80) 92 % of control; under setting [10], 96 % of control; under setting [11], 96 % of control.
Regarding `c1ccc2c(c1)CCCN2`, the T/C is 98 % of control (endpoint: mean survival time, dose: 31.5 mg/kg/injection, schedule: Q04DX003 (ip), vehicle: saline with Tween-80); 102 % of control (endpoint: mean survival time, dose: 50.0 mg/kg/injection, schedule: Q04DX003 (ip), vehicle: saline with Tween-80); 98 % of control (endpoint: mean survival time, dose: 63.0 mg/kg/injection, schedule: Q04DX003 (ip), vehicle: saline with Tween-80); 102 % of control under setting [12]; 106 % of control (endpoint: mean survival time, dose: 125.0 mg/kg/injection, schedule: Q04DX003 (ip), vehicle: saline with Tween-80); 93 % of control under setting [13]. For the same molecule, the T/C under setting [14] is 86 % of control.
Consider `CCOC(=O)C1CC(c2ccccc2)=NN1c1ccccc1` (configuration not stated), for which the T/C is, setting by setting: (endpoint: mean survival time, dose: 12.5 mg/kg/injection, schedule: Q01DX009 (ip), vehicle: Klucel (hydroxypropylcellulose) (HPC)) 95 % of control; (endpoint: mean survival time, dose: 25.0 mg/kg/injection, schedule: Q01DX009 (ip), vehicle: Klucel (hydroxypropylcellulose) (HPC)) 101 % of control; under setting [7], 102 % of control; under setting [8], 101 % of control; under setting [9], 95 % of control; (endpoint: mean survival time, dose: 400.0 mg/kg/injection, schedule: Q01DX009 (ip), vehicle: Klucel (hydroxypropylcellulose) (HPC)) 98 % of control.
For `CCS(=O)(=O)C(CCC#N)(CCC#N)S(=O)(=O)CC`, the T/C runs as follows: (endpoint: mean survival time, dose: 100.0 mg/kg/injection, schedule: Q01DX001 (ip), vehicle: saline) 95 % of control; (endpoint: mean survival time, dose: 200.0 mg/kg/injection, schedule: Q01DX001 (ip), vehicle: saline) 103 % of control.
In the case of `CN1CC=C(N2CCOCC2)CC1`, the T/C by setting is: under setting [4], 109 % of control; under setting [5], 103 % of control; under setting [6], 103 % of control and 109 % of control.
`Cn1c(=O)c2[nH]c(Cl)nc2n(C)c1=O`: the T/C reads like this: (endpoint: mean survival time, dose: 12.5 mg/kg/injection, schedule: Q01DX005 (ip), vehicle: water) 92 % of control; (endpoint: mean survival time, dose: 25.0 mg/kg/injection, schedule: Q01DX005 (ip), vehicle: water) 93 % of control; (endpoint: mean survival time, dose: 50.0 mg/kg/injection, schedule: Q01DX005 (ip), vehicle: water) 103 % of control; (endpoint: mean survival time, dose: 100.0 mg/kg/injection, schedule: Q01DX005 (ip), vehicle: water) 87 % of control.
For the molecule `c1ccc(CNCCNCc2ccccc2)cc1`, the T/C under setting [1] was 95 % of control and the T/C under setting [12] was 97 % of control.
For the molecule `CCCCCCCCN1C(=O)CCC1=O`, the T/C under setting [10] is 103 % of control and the T/C under setting [11] is 91 % of control.
In the case of `NC1CCCCC1N.O=C([O-])c1ccc(N=Nc2cccc([N+](=O)[O-])c2)cc1O.O=C([O-])c1ccc(N=Nc2cccc([N+](=O)[O-])c2)cc1O.[Pt+4]`, the T/C is, setting by setting: (endpoint: median survival time, dose: 3.12 mg/kg/injection, schedule: Q04DX003 (ip), vehicle: saline with Tween-80) 150 % of control and 301 % of control; (endpoint: median survival time, dose: 6.25 mg/kg/injection, schedule: Q04DX003 (ip), vehicle: saline with Tween-80) 190 % of control and 247 % of control; (endpoint: median survival time, dose: 12.5 mg/kg/injection, schedule: Q04DX003 (ip), vehicle: saline with Tween-80) 361 % of control and 375 % of control; (endpoint: median survival time, dose: 50.0 mg/kg/injection, schedule: Q04DX003 (ip), vehicle: saline with Tween-80) 89 % of control.
As for `CC(C)(CO)c1ccc(C(c2ccccc2)c2ccccc2)cc1`, the T/C (endpoint: mean survival time, dose: 50.0 mg/kg/injection, schedule: Q01DX009 (ip), vehicle: other) is 96 % of control; the T/C (endpoint: mean survival time, dose: 100.0 mg/kg/injection, schedule: Q01DX009 (ip), vehicle: other) is 101 % of control; the T/C (endpoint: mean survival time, dose: 200.0 mg/kg/injection, schedule: Q01DX009 (ip), vehicle: other) is 96 % of control.
As for `c1cncc(C2OCCO2)c1`, the T/C by setting is: (endpoint: mean survival time, dose: 100.0 mg/kg/injection, schedule: Q01DX009 (ip), vehicle: saline) 105 % of control; (endpoint: mean survival time, dose: 200.0 mg/kg/injection, schedule: Q01DX009 (ip), vehicle: saline) 100 % of control; (endpoint: mean survival time, dose: 400.0 mg/kg/injection, schedule: Q01DX009 (ip), vehicle: saline) 100 % of control.
Consider `COc1ccc(OC)c(C2N(Cc3ccccc3N(C)C)CCCN2Cc2ccccc2N(C)C)c1`, for which the T/C under setting [12] was 92 % of control and the T/C under setting [13] was 88 % of control.
On to `c1ccc(CCc2nc3ccccc3o2)cc1`, for which the T/C is, setting by setting: under setting [12], 98 % of control; under setting [13], 102 % of control; under setting [14], 93 % of control.
As for `Clc1nnc(Cl)c(Cl)c1Cl`, the T/C was 88 % of control (endpoint: mean survival time, dose: 1.56 mg/kg/injection, schedule: Q04DX003 (ip), vehicle: saline with Tween-80) and 88 % of control (endpoint: mean survival time, dose: 3.13 mg/kg/injection, schedule: Q04DX003 (ip), vehicle: saline with Tween-80).
As to `N#CSCc1ccc(CSC#N)c(Br)c1`, the T/C is 102 % of control (endpoint: mean survival time, dose: 75.0 mg/kg/injection, schedule: Q04DX003 (ip), vehicle: saline); 98 % of control (endpoint: mean survival time, dose: 150.0 mg/kg/injection, schedule: Q04DX003 (ip), vehicle: saline); 101 % of control (endpoint: mean survival time, dose: 300.0 mg/kg/injection, schedule: Q04DX003 (ip), vehicle: saline).
`CCOc1ccc2cc(S(=O)(=O)O)ccc2c1N`: the T/C is, setting by setting: under setting [6], 93 % of control; (endpoint: mean survival time, dose: 200.0 mg/kg/injection, schedule: Q04DX003 (ip), vehicle: saline) 95 % of control; (endpoint: mean survival time, dose: 400.0 mg/kg/injection, schedule: Q04DX003 (ip), vehicle: saline) 103 % of control.
For `Cc1ccc(/C=C2\CCOC2=O)cc1`, the T/C is 102 % of control (endpoint: mean survival time, dose: 100.0 mg/kg/injection, schedule: Q04DX003 (ip), vehicle: Klucel (hydroxypropylcellulose) (HPC)); 96 % of control (endpoint: mean survival time, dose: 200.0 mg/kg/injection, schedule: Q04DX003 (ip), vehicle: Klucel (hydroxypropylcellulose) (HPC)); 96 % of control (endpoint: mean survival time, dose: 400.0 mg/kg/injection, schedule: Q04DX003 (ip), vehicle: Klucel (hydroxypropylcellulose) (HPC)).
